This passage reports EC50 results from paper PMC10062609 (PLOS ONE, 2023).

This assay addresses Nicotinamide phosphoribosyltransferase (NAMPT) (Homo sapiens, UniProt P43490). Briefly: biochemical.

Nicotinamide phosphoribosyltransferase (NAMPT), sequence (P43490 whole entry): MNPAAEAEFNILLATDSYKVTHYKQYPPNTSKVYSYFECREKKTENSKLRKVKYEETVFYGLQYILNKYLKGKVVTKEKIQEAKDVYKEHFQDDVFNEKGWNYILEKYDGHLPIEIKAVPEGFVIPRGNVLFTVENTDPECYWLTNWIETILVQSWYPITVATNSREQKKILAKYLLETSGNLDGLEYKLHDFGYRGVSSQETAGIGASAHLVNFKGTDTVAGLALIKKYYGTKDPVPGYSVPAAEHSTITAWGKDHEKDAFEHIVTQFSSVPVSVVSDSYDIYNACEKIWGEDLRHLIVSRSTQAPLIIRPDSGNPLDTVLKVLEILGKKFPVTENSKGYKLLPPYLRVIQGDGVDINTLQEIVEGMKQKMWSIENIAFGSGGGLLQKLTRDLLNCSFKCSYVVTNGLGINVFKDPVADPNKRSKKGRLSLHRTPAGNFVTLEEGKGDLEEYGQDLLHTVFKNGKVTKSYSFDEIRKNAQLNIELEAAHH

The EC50 is the concentration that produces a half-maximal response. As for `C[C@@H]1O[C@@H](Oc2c(-c3cc(O)c(O)c(O)c3)oc3cc(O)cc(O)c3c2=O)[C@H](O)[C@H](O)[C@H]1O` [compound 2, Myricitrin], the EC50 stood at 6.18 µM.
Compound `O=c1cc2oc3cc(O)c(O)cc3c(-c3ccccc3O)c-2cc1O` [compound 20, NSC9037] returned an EC50 of 3.58 µM.
